Series [1] can be described thus: Mouse Liver Microsomal Stability. Conditions: mouse liver microsomes. Background: Liver microsomes are vesicles of endoplasmic reticulum, rich in cytochrome P450 enzymes.
A short description of series [2]: Human Liver Microsomal Stability. Particulars: human liver microsomes.
Another series concerns A/H5N1/Duck_PA. The series can be described thus: microbe, parasite or virus in culture. The class given is cell-based, influenza virus. Conditions: read-out: A/H5N1/Duck_PA EC50.
Another series concerns A/H5N1/Gull_PA. The series can be described thus: microbe, parasite or virus in culture. The class given is cell-based, influenza virus. Particulars: read-out: A/H5N1/Gull_PA EC50.
For a further series, the system named is A/H1N1/Solomon Islands. The series is described as follows: Antiviral assay in MDCK cells, viral neuraminidase (MUNANA) readout, A/H1N1/Solomon Islands. The format is cell-based, influenza A. Conditions: viral NA activity.
The subject of a further series is A/H5N1/Duck_MN. The series can be described thus: microbe, parasite or virus in culture. The class given is cell-based, influenza virus. Particulars: read-out: A/H5N1/Duck_MN EC50.
For a further series, the system named is A/H3N2 Brisbane. The series is described as follows: Antiviral assay in MDCK cells, viral neuraminidase (MUNANA) readout, A/H3N2 Brisbane. The class given is cell-based, influenza A. Conditions: viral NA activity.
The subject of a further series is A/H1N1/WSN. The series can be described thus: Antiviral assay in MDCK cells, viral neuraminidase (MUNANA) readout, A/H1N1/WSN. The class given is cell-based, influenza A. Conditions: MOI 0.001, 48 hrs post infection, viral NA activity.
[3] abbreviates: MOI 0.001, 48 hrs post infection.
The mark [4] stands for this setting: Influenza A virus, H5N1, MDCK, 48 h.
[5] abbreviates: Influenza A virus, H1N1, MOI 0.001, 48 hrs post infection.
The mark [6] stands for this setting: Influenza A virus, H3N2, MOI 0.001, 48 hrs post infection.

Like-named read-outs stand apart in the source and are kept apart here. Bounds are passed on as bounds.

Turning to `Cc1onc(-c2ccccc2Cl)c1C(=O)N1CCN(c2ccc([N+](=O)[O-])cc2F)CC1` [Example 4], in series [1], the “Mouse Liver Microsomal Stability (% Remaining after 10 minutes)” value worked out at 86%. Also, the “Human Liver Microsomal Stability (% Remaining after 10 minutes)” value in series [2] was 72%.
Regarding `COc1ccccc1-c1noc(C)c1C(=O)N1CCN(c2ccc([N+](=O)[O-])cc2Cl)CC1` [Example 18], the EC50 with A/H5N1/Duck_PA was < 1 µM; with A/H5N1/Gull_PA, < 0.1 µM; in the series on A/H1N1/Solomon Islands (setting [3]), < 1 µM; in the series on A/H5N1/Duck_MN, < 1 µM; with A/H3N2 Brisbane (setting [3]), < 10 µM; in the series on A/H1N1/WSN, < 0.1 µM.
With `Cc1onc(-c2ccc(F)cc2)c1C(=O)N1CCN(c2ccc([N+](=O)[O-])cc2Cl)CC1` [Example 27], the “Mouse Liver Microsomal Stability (% Remaining after 10 minutes)” value in series [1] turned out to be 86%. The “Human Liver Microsomal Stability (% Remaining after 10 minutes)” value in series [2] was 66%.
With `Cc1onc(-c2cccc(Cl)c2)c1C(=O)N1CCN(c2ccc([N+](=O)[O-])cc2Cl)CC1` [Example 28], the “Mouse Liver Microsomal Stability (% Remaining after 10 minutes)” value in series [1] is 85%. Moreover, in series [2], the “Human Liver Microsomal Stability (% Remaining after 10 minutes)” value is 94%.
Taken in the same sequence, the figures for `COc1cc(F)ccc1-c1noc(C)c1C(=O)N1CCN(c2ccc([N+](=O)[O-])cc2Cl)CC1` [Example 29] were 28% and 68%.
On to `COc1ccc(-c2noc(C)c2C(=O)N2CCN(c3ccc([N+](=O)[O-])cc3Cl)CC2)c(Cl)c1` [Example 31], for which the EC50 in the series with A/H5N1/Duck_PA was < 1 µM; in the series with A/H5N1/Gull_PA, < 0.1 µM; in the series with A/H1N1/Solomon Islands (setting [3]), < 1 µM; in the series on A/H5N1/Duck_MN, < 1 µM; with A/H3N2 Brisbane (setting [3]), > 10 µM; with A/H1N1/WSN, < 0.1 µM.
On to `COc1ncccc1-c1noc(C)c1C(=O)N1CCN(c2ccc([N+](=O)[O-])cc2Cl)CC1` [Example 45], for which the “Mouse Liver Microsomal Stability (% Remaining after 10 minutes)” value in series [1] is recorded as 33%. Also, the “Human Liver Microsomal Stability (% Remaining after 10 minutes)” value in series [2] is 56%.
As to `Cc1onc(-c2cccnc2Cl)c1C(=O)N1CCN(c2ccc([N+](=O)[O-])cc2Cl)CC1` [Example 61], the EC50 in the series on A/H5N1/Duck_PA is < 1 µM; in the series on A/H5N1/Gull_PA, < 1 µM; in the series on A/H1N1/Solomon Islands (setting [3]), < 10 µM; in the series on A/H5N1/Duck_MN, < 1 µM; in the series on A/H3N2 Brisbane (setting [3]), > 10 µM; with A/H1N1/WSN it was < 0.1 µM. In addition, in series [1], the “Mouse Liver Microsomal Stability (% Remaining after 10 minutes)” value stood at 18%. For the same molecule, the “Human Liver Microsomal Stability (% Remaining after 10 minutes)” value in series [2] was found to be 50%.
For `COc1ccc2ccccc2c1-c1noc(C)c1C(=O)N1CCN(c2ccc([N+](=O)[O-])cc2Cl)CC1` [Example 63], the EC50 with A/H5N1/Duck_PA was < 1 µM; in the series with A/H5N1/Gull_PA, < 0.1 µM; in the series with A/H1N1/Solomon Islands (setting [3]), < 1 µM; in the series on A/H5N1/Duck_MN, < 1 µM; with A/H3N2 Brisbane (setting [3]) it was > 10 µM; with A/H1N1/WSN, < 0.1 µM.
As for `Cc1[nH]nc(-c2ccccc2Cl)c1C(=O)N1CCN(c2ccc([N+](=O)[O-])cc2Cl)CC1` [Example 72], the EC50 in the series on A/H5N1/Duck_PA was < 10 µM; with A/H5N1/Gull_PA it was < 1 µM; in the series with A/H1N1/Solomon Islands (setting [3]) it was > 10 µM; in the series on A/H5N1/Duck_MN, < 10 µM; with A/H3N2 Brisbane (setting [3]) it was > 10 µM; with A/H1N1/WSN, < 1 µM. The “Mouse Liver Microsomal Stability (% Remaining after 10 minutes)” value in series [1] amounted to 61%. In addition, the “Human Liver Microsomal Stability (% Remaining after 10 minutes)” value in series [2] came out at 78%.
In the case of `Cc1c[nH]c(-c2ccccc2Cl)c1C(=O)N1CCN(c2ccc([N+](=O)[O-])cc2Cl)CC1` [Example 75, (4-(2-chloro-4-nitrophenyl)piperazin-1-yl)(2-(2-chlorophenyl)-4-methyl-1H-pyrrol-3-yl)methanone], the EC50 with A/H5N1/Duck_PA (setting [4]) was < 1 µM; in the series on A/H5N1/Gull_PA (setting [4]), < 0.1 µM; with A/H1N1/Solomon Islands (setting [5]), < 10 µM; in the series on A/H5N1/Duck_MN (setting [4]) it was < 1 µM; in the series on A/H3N2 Brisbane (setting [6]), > 10 µM; in the series with A/H1N1/WSN (Influenza A virus), < 0.1 µM.
In the case of `Cc1cnn(-c2ccccc2Cl)c1C(=O)N1CCN(c2ccc([N+](=O)[O-])cc2Cl)CC1` [Example 77], the EC50 with A/H5N1/Duck_PA was < 10 µM; with A/H5N1/Gull_PA, < 1 µM; with A/H1N1/Solomon Islands (setting [3]), > 10 µM; with A/H5N1/Duck_MN, < 10 µM; in the series with A/H3N2 Brisbane (setting [3]), > 10 µM; with A/H1N1/WSN, < 1 µM.
As to `COc1ccccc1-c1n[nH]c(C)c1C(=O)N1CCN(c2ccc([N+](=O)[O-])cc2Cl)CC1` [Example 80], the EC50 was < 10 µM in the series with A/H5N1/Duck_PA; < 1 µM in the series with A/H5N1/Gull_PA; < 10 µM in the series with A/H1N1/Solomon Islands (setting [3]); < 10 µM in the series on A/H5N1/Duck_MN; > 10 µM in the series with A/H3N2 Brisbane (setting [3]); < 10 µM in the series on A/H1N1/WSN. Besides, the “Mouse Liver Microsomal Stability (% Remaining after 10 minutes)” value in series [1] was found to be 65%. Besides, the “Human Liver Microsomal Stability (% Remaining after 10 minutes)” value in series [2] is given as 72%.
Turning to `COc1ccccc1-c1n[nH]c(C)c1C(=O)N1CCN(c2ncc([N+](=O)[O-])cc2Cl)CC1` [Example 83], the “Mouse Liver Microsomal Stability (% Remaining after 10 minutes)” value in series [1] is 16%. In addition, in series [2], the “Human Liver Microsomal Stability (% Remaining after 10 minutes)” value is 52%.
In the case of `COc1ccccc1-c1nnn(C)c1C(=O)N1CCN(c2ncc([N+](=O)[O-])cc2Cl)CC1` [Example 86], the EC50 with A/H5N1/Duck_PA was < 10 µM; in the series on A/H5N1/Gull_PA, < 1 µM; in the series with A/H1N1/Solomon Islands (setting [3]), < 10 µM; in the series with A/H5N1/Duck_MN, < 10 µM; with A/H3N2 Brisbane (setting [3]) it was > 10 µM; with A/H1N1/WSN, < 1 µM.
As to `COc1ccccc1-c1noc(C)c1C(=O)N1CCN(c2ncc(Cl)cc2Br)CC1` [Example 129], the EC50 in the series on A/H5N1/Duck_PA was < 10 µM; with A/H5N1/Gull_PA, < 1 µM; in the series with A/H1N1/Solomon Islands (setting [3]), < 10 µM; in the series on A/H5N1/Duck_MN it was < 10 µM; in the series with A/H3N2 Brisbane (setting [3]) it was < 10 µM; with A/H1N1/WSN it was < 1 µM.
On to `Cc1cc(Br)cnc1N1CCN(C(=O)c2c(-c3ccccc3Cl)noc2C)CC1` [Example 132, (4-(5-bromo-3-methylpyridin-2-yl)piperazin-1-yl)(3-(2-chlorophenyl)-5-methylisoxazol-4-yl)methanone], for which the EC50 in the series on A/H5N1/Duck_PA (setting [4]) was > 10 µM; in the series with A/H5N1/Gull_PA (setting [4]) it was > 10 µM; in the series with A/H1N1/Solomon Islands (setting [5]) it was < 10 µM; in the series on A/H5N1/Duck_MN (setting [4]), > 10 µM; with A/H3N2 Brisbane (setting [6]), > 10 µM; in the series with A/H1N1/WSN (Influenza A virus) it was < 1 µM.
As to `Cc1c[nH]c(-c2ccccc2Cl)c1C(=O)N1CCN(c2ncc(Cl)cc2Cl)CC1` [Example 133], the EC50 in the series with A/H5N1/Duck_PA is > 10 µM; in the series on A/H5N1/Gull_PA it was < 10 µM; with A/H1N1/Solomon Islands (setting [3]), < 10 µM; with A/H5N1/Duck_MN, > 10 µM; in the series on A/H3N2 Brisbane (setting [3]) it was < 10 µM; in the series on A/H1N1/WSN, < 1 µM.
`Cc1onc(-c2ccccc2O)c1C(=O)N1CCN(c2ncc(Cl)cc2Cl)CC1` [Example 142, (4-(3,5-dichloropyridin-2-yl)piperazin-1-yl)(3-(2-hydroxyphenyl)-5-methylisoxazol-4-yl)methanone]: in series [1], the “Mouse Liver Microsomal Stability (% Remaining after 10 minutes)” value is listed as 34%. In addition, in series [2], the “Human Liver Microsomal Stability (% Remaining after 10 minutes)” value was 80%.
Taken in the same sequence, the figures for `Cc1onc(-c2ccccc2C(N)=O)c1C(=O)N1CCN(c2ccc([N+](=O)[O-])cc2Cl)CC1` [Example 155, 2-(4-(4-(2-chloro-4-nitrophenyl)piperazine-1-carbonyl)-5-methylisoxazol-3-yl)benzamide] were 61% and 80%.
The corresponding values for `COc1ccc(N)cc1-c1noc(C)c1C(=O)N1CCN(c2ncc(Cl)cc2Cl)CC1` [Example 159, (3-(5-amino-2-methoxyphenyl)-5-methylisoxazol-4-yl)(4-(3,5-dichloropyridin-2-yl)piperazin-1-yl)methanone] are 36% and 62%.
Taken in the same sequence, the figures for `COc1ccc(NS(C)(=O)=O)cc1-c1noc(C)c1C(=O)N1CCN(c2ncc(Cl)cc2Cl)CC1` [Example 161, N-(3-(4-(4-(3,5-dichloropyridin-2-yl)piperazine-1-carbonyl)-5-methylisoxazol-3-yl)-4-methoxyphenyl)methanesulfonamide] were 8% and 70%.
With `COc1ccc(NS(C)(=O)=O)cc1-c1noc(C)c1C(=O)N1CCN(c2ccc([N+](=O)[O-])cc2Cl)CC1` [Example 163], the “Mouse Liver Microsomal Stability (% Remaining after 10 minutes)” value in series [1] is 49%. Further, in series [2], the “Human Liver Microsomal Stability (% Remaining after 10 minutes)” value came out at 75%.
`COc1ccc(NC(C)=O)cc1-c1noc(C)c1C(=O)N1CCN(c2ccc([N+](=O)[O-])cc2Cl)CC1` [Example 165]: the EC50 was < 10 µM in the series on A/H5N1/Duck_PA; < 1 µM in the series with A/H5N1/Gull_PA; < 1 µM in the series with A/H1N1/Solomon Islands (setting [3]); < 10 µM in the series on A/H5N1/Duck_MN; > 10 µM in the series with A/H3N2 Brisbane (setting [3]); < 1 µM in the series with A/H1N1/WSN.
Consider `Cc1onc(-c2ccccc2)c1C(=O)N1CCN(c2ccc([N+](=O)[O-])cc2Cl)CC1` [reference compound], for which the “Mouse Liver Microsomal Stability (% Remaining after 10 minutes)” value in series [1] amounted to 20%. In addition, the “Human Liver Microsomal Stability (% Remaining after 10 minutes)” value in series [2] is 40%.
Taken in the same sequence, the figures for `Cc1onc(-c2ccccc2Cl)c1C(=O)N1CCN(c2ccc([N+](=O)[O-])cc2Cl)CC1` [reference compound] were 0% and 6%.
